# Data from US9283235B2, “Intermittent lowering of cortisol as treatment of clinical conditions associated with abnormal concentrations of cortisol in animals” (Stegram Pharmaceuticals Limited, priority 2001, dated 2016).
# Where “and” joins values, the source holds several entries; their conditions need not be identical. Identical values can stand only once. Entries after “also recorded” stand apart in the source; their conditions may differ.
# Columns and labels:
# [1] = test system: serum cortisol; assay: Mean serum cortisol over 24 hours (4-hourly samples) in horses with Cushing's disease; type: in vivo, horse
# Method: (§1) The ability of intermittent administration of Trilostane to block adrenal steroidogenesis was assessed in twenty horses (mean age 21, SD 5.7 years) with equine Cushing's disease. The combined dexamethasone suppression thyrotropin releasing hormone (TRH) stimulation test (17 horses) or TRH stimulation test (3 horses) was used as a standard test of function of the hypothalamic-pituitary-adrenal axis. Serum samples for cortisol analysis were collected via indwelling catheter at 4-hourly intervals over 24 hours on each of the test periods. These were before treatment then at 210 minutes (30 min after I mg i.v. TRH) and 22 hours after […] dexamethasone i.m. Affected horses were treated with 0.4 to 1 mg/kg, (mean 0.5 mg/kg) trilostane administered once daily in feed for a period of 30 days. After 30 days endocrine testing was repeated. Serum cortisol before and after treatment was compared by paired t-test.
# [2] = test system: ACTH stimulation of the adrenal gland; assay: ACTH stimulation test, serum cortisol in dogs; type: in vivo, dog
# Method: Dogs were entered into the study sequentially over a period of 2-3.5 years Owners were informed about the experimental nature of the treatment and signed a consent form. The ACTH stimulation test was performed by collection of serum samples before and one hour after intravenous injection of ACTH (Synacthen, Alliance) at a dose of 0.125 mg for dogs weighing less than 15 kg, and 0.25 mg for dogs weighing greater than 15 kg. Cortisol concentration was measured by radioimmunoassay previously validated for dogs Blood for endogenous ACTH was collected into a cooled EDTA tube in ice, centrifuged immediately and the frozen at −20° C. Abdominal ultrasound was performed by an experienced board-certified radiologist and adrenal thickness was assessed as a single measurement made perpendicular to the long axis and was defined as the greatest dorso-ventral dimension.
# Dogs with Cushing's disease were given an ACTH stimulation test at 12, 35 and 81 days (average) during a course of treatment with a single daily dose of trilostane of 5-20 mg/kg. […] Thus, trilostane has blunted ACTH stimulation of the adrenal gland.
# [3] = test system: dogs with hyperadrenocorticism (HAC); assay: Tolerability and adverse events of trilostane in dogs with HAC; type: in vivo, dog
# Method: Follow-up re-examinations took place after 10 days, 4 weeks, 3 mouths, 6 months and then every 6 months or within 4 weeks of adjusting the dosage. At these points, owners were carefully questioned about their perception of the dogs general well being, dissolution of clinical signs and potential side effects and a physical examination was performed. A full biochemical profile and an ACTH stimulation test were carried out. Further tests such as urinanalysis, urine culture, thoracic radiographs, etc. were done if deemed necessary. If the clinical sips of hyperadrenocorticism (polyuria/polydipsia, polyphagia, exercise intolerance, etc.) were still present and if the post-ACTH cortisol concentration remained above 220 nmol/l, trilostane was given twice daily at the same dosage.
# Starting dose was between 1.8 and 20 mg/kg (mean: 6.0; SD 3.4 mg/kg). […] Two cross bred dogs with classical clinical signs and endocrine testing results of HAC were started on 6.5 and 7.5 mg/kg trilostane. […] One of the dogs also was hyperkalaernic and hyponatraemic (ratio:22.3). In both dogs no more trilostane was given thereafter and the dogs are free of clinical signs after 2.7 and 1.4 years. In the 9 dogs with adrenal tumours, which started on the same dosing protocol as the dogs with PDH, two had the dose halved, three stayed on the original dose while in 4 dogs the dose was increased up to 300% of the original dose.
# [4] = test system: horses with equine Cushing's disease; assay: Clinical signs in horses with equine Cushing's disease, trilostane once daily in feed for 30 days; type: in vivo, horse
# Method: as §1
# [5] = test system: serum cortisol; assay: Canine serum cortisol over 24 hours pre and post trilostane; type: in vivo, dog; conditions: for Canine serum cortisol, post: individual dogs; for Canine serum cortisol, post, Mean: mean of dogs
# Excerpt: With this level of lowering there was relief of the symptoms of the Cushing's disease.
# [6] = test system: hypothalamic-pituitary-adrenal axis; assay: Combined dexamethasone suppression / TRH stimulation test, serum cortisol in horses; type: in vivo, horse
# Method: as §1
# This is similar to the post ACTH stimulation in the dogs. The adrenal gland is not responding to stimulation by pituitary hormone in the same way as before trilostane treatment.
# [7] = test system: advanced breast cancer; conditions: published studies (Williams et al 1993; Ingle et al 1990); cited from earlier work
# [8] = mean of all horses, once daily 0.4-1.0 mg/k for 30 days
# [9] = Table 2, individual horses, after trilostane
# [10] = Table 5, individual horses, after 30 days 0.4–1.0 mg/k
# [11] = mean of horses, after 30 days trilostane
compound,measurement,setting,value
"CC12CCC3C(CC[C@@]45O[C@@H]4C(=O)C(C#N)CC35C)C1CC[C@@H]2O (stereo partly drawn) [Trilostane, 2α-cyano-4α,5α-epoxyandrostan-17β-ol-3-one]","Change of serum cortisol concentrations pre vs post trilostane, in words","[1]; horses, once daily dose, 30 days",only a small drop in cortisol levels; also recorded: no apparent change in cortisol concentrations
same,"Mean Cortisol concentrations over 24 hrs, POST TREATMENT Mean","[1]; individual horses, mean of 6 samples at 4-hourly intervals, after 30 days of oral trilostane",108 and 203.7 and 157.3 and 263.3 and 143 and 193 and 122.8 and 134.4 and 112 and 152.3 and 113 and 194.7 and 94.8 and 112.3 and 183.3 and 245.5 and 158 and 164.5 and 160 and 149.8
same,"Serum cortisol, Post Trilosane Mean","[1]; individual horses, mean of 6 samples over 24 hours, once daily 0.4-1.0 mg/k for 30 days, listed as Trilosane",108 nmol/L and 203.7 nmol/L and 157.3 nmol/L and 263.3 nmol/L and 143 nmol/L and 193 nmol/L and 122.8 nmol/L and 134.4 nmol/L and 112 nmol/L and 152.3 nmol/L and 113 nmol/L and 194.7 nmol/L and 94.8 nmol/L and 112.3 nmol/L and 183.3 nmol/L and 245.5 nmol/L and 158 nmol/L and 164 nmol/L and 1 nmol/L and 149 nmol/L
same,"Serum cortisol, Difference, pre-post","[1]; individual horses, once daily 0.4-1.0 mg/k for 30 days, listed as Trilosane",-7.5 nmol/L and -61.2 nmol/L and -0.1 nmol/L and -6.8 nmol/L and 4 nmol/L and -38 nmol/L and -3 nmol/L and -17.1 nmol/L and 11 nmol/L and 10.4 nmol/L and 3.6 nmol/L and 34.6 nmol/L and -2.5 nmol/L and 2.4 nmol/L and -24.5 nmol/L and -80.5 nmol/L and -31.5 nmol/L and 5.5 nmol/L and 15.2 nmol/L and 3.4 nmol/L
same,"Serum cortisol, Difference, pre-post, group mean",[1]; [8],-9.1 ± 26.9 nmol/L
same,"Serum cortisol, Post Trilosane Mean, group mean",[1]; [8],158.3 nmol/L
same,% pre Trilostane Cortisol,[2]; 12 days of Trilostane treatment,−29.7%
same,Post ACTH stimulation test serum Cortisol,"[2]; 12 days of Trilostane treatment (5-10 mg/k), 53 dogs",249 nmol/L
same,% pre Trilostane Cortisol,[2]; 35 days of Trilostane treatment,−30.0%
same,Post ACTH stimulation test serum Cortisol,"[2]; 35 days of Trilostane treatment (5-10 mg/k), 59 dogs",231 nmol/L
same,% pre Trilostane Cortisol,[2]; 81 days of Trilostane treatment,−27.3%
same,Post ACTH stimulation test serum Cortisol,"[2]; 81 days of Trilostane treatment (5-10 mg/k), 48 dogs",214 nmol/L
same,Serum cortisol post ACTH as % of the original value,"[2]; first re-examination, all dogs",less than 61%
same,"Cortisol response to ACTH, in words","[2]; single daily dose 5-20 mg/kg, vs non-treatment controls",markedly reduced
same,Biochemistry abnormalities during the course of therapy,[3]; all without clinical consequence,"one episode of hyperkalaemia, two episodes of azotaemia, three episodes of hyperbilirubinaemia and two episodes of hypercalcaemia"
same,Acute deaths,"[3]; dog, in vivo",Three dogs died acutely at home
same,Tolerability,[3]; starting dose 1.8 to 20 mg/kg,generally well tolerated
same,Hyperkalaemia and hyponatraemia,"[3]; trilostane stopped, both dogs euthanised",two dogs showed hyperkalaemia and hyponatraemia prior to clinical deterioration
same,ACTH stimulation test leading to stop of the drug,"[3]; two cross bred dogs started on 6.5 and 7.5 mg/kg, after two and three months",both showed a flat-lined ACTH stimulation test
same,Lethargy / demeanour after therapy,[4]; lethargy present in 19 horses,improvement in demeanour was evident in all horses
same,Polyuria and/or polydipsia after treatment,[4]; present in 11 horses,reduced ill all
same,"Recurrent, chronic or persistent laminitis improved or showed no recurrence",[4]; present in 17 horses,14 cases
same,"Severe, acute laminitis on presentation, response","[4]; three horses, rotation and sinking on radiographs",did not respond to trilostane
same,Overall clinical response,[4]; trilostane once-per-day,a clinical response was observed; also recorded: improvement in most of the clinical signs in all horses
same,"Serum cortisol lowering after daily dose, in words",[5]; dogs with Cushing's disease,reduced significantly at 4 hrs
same,"Canine serum cortisol, post","[5]; 4 hrs after dose, Trilostane 5–10 mg/k over 4–21 days",5 nmol/l (4×) and 62 nmol/l (2×) and 10 nmol/l and 60 nmol/l and 57 nmol/l and 63 nmol/l
same,"Canine serum cortisol, post",[5]; 8 hrs after dose,5 nmol/l (4×) and 48 nmol/l and 171 nmol/l and 51 nmol/l and 262 nmol/l and 183 nmol/l and 315 nmol/l
same,"Canine serum cortisol, post",[5]; 12 hrs after dose,5 nmol/l and 75 nmol/l and 83 nmol/l and 66 nmol/l (2×) and 158 nmol/l and 197 nmol/l and 143 nmol/l and 164 nmol/l and 318 nmol/l
same,"Canine serum cortisol, post",[5]; 19 hrs after dose,52 nmol/l and 101 nmol/l and 92 nmol/l and 63 nmol/l and 85 nmol/l and 183 nmol/l (3×) and 139 nmol/l and 230 nmol/l
same,"Canine serum cortisol, post",[5]; 20 hrs after dose,166 nmol/l and 105 nmol/l and 86 nmol/l and 97 nmol/l and 61 nmol/l and 154 nmol/l and 144 nmol/l (2×) and 108 nmol/l and 199 nmol/l
same,"Canine serum cortisol, post",[5]; 24 hrs after dose,117 nmol/L and 109 nmol/L and 51 nmol/L and 74 nmol/L and 66 nmol/L and 171 nmol/L and 144 nmol/L and 131 nmol/L and 154 nmol/L and 246 nmol/L
same,"Canine serum cortisol, post",[5]; 28 hrs after dose,147 nmol/L and 112 nmol/L and 75 nmol/L and 86 nmol/L and 53 nmol/L and 124 nmol/L and 190 nmol/L and 174 nmol/L and 246 nmol/L and 313 nmol/L
same,"Canine serum cortisol, post, Mean",[5]; 4 hrs,33 nmol/L
same,"Canine serum cortisol, post, Mean",[5]; 8 hrs,105 nmol/L
same,"Canine serum cortisol, post, Mean",[5]; 12 hrs,130 nmol/L
same,"Canine serum cortisol, post, Mean",[5]; 19 hrs,131 nmol/L
same,"Canine serum cortisol, post, Mean",[5]; 20 hrs,126 nmol/L
same,"Canine serum cortisol, post, Mean",[5]; 24 hrs,126 nmol/L
same,"Canine serum cortisol, post, Mean",[5]; 28 hrs,152 nmol/L
same,Serum cortisol Post-Treatment Base,[6]; [9],160 and 236 and 116 and 254 and 149 and 127 and 112 and 136 and 65 and 202 and 81 and 100 and 209 and 189 and 121 and 288
same,Serum cortisol Post-Treatment Post Dex,[6]; [9],170 and 149 and 118 and 113 (2×) and 82 and 81 (2×) and 163 and 50 and 101 and 138 and 47 and 1 and 153
same,Serum cortisol Post-Treatment Post TRH,[6]; [9],114 and 316 and 167 and 193 and 93 and 79 and 139 and 158 and 170 and 88 and 150 and 117 and 100 (2×) and 138 and 224
same,% change,"[6]; Table 2, individual horses, pre vs post treatment",−60.5% and −69% and −8% and −84% and −82% and −16% and −5% and −27% and −233% and −50% and −1% and −10% and 18% and −57% and 1% and −15.8%
same,"Different, pre-post: % TRH resp","[6]; Table 5, individual horses",60% and 69% and 8% and 84% and 52% and 16% (2×) and 5% and 27% and 152% and 50% and 1% and 11% and −18% and 57% and 37%
same,"Different, pre-post: Base","[6]; Table 5, individual horses",-33 nmol/L and -105 nmol/L and 15 nmol/L and -118 nmol/L and -124 nmol/L and -23 nmol/L and 20 nmol/L and -8 nmol/L and 8 nmol/L and 29 nmol/L and 5 nmol/L and 2 nmol/L and 65 nmol/L and -18 nmol/L and 22 nmol/L and -95 nmol/L
same,"Different, pre-post: post Dex","[6]; Table 5, individual horses",−20 nmol/l and 12 nmol/l and 4 nmol/l and −10 nmol/l and 7 nmol/l (2×) and −16 nmol/l and −17 nmol/l and 107 nmol/l and 5 nmol/l and 15 nmol/l and −40 nmol/l and 23 nmol/l and 60 nmol/l and −67 nmol/l
same,"Different, pre-post: post TRH","[6]; Table 5, individual horses",53 nmol/L and -50 nmol/L and 32 nmol/L and 27 nmol/L and 49 nmol/L and 2 nmol/L and 31 nmol/L and 25 nmol/L and 66 nmol/L and 130 nmol/L and 10 nmol/L and 8 nmol/L and -19 nmol/L and 84 nmol/L and 71 nmol/L and -43 nmol/L
same,Cortisol post Trilostane Base,[6]; [10],160 nmol/L and 236 nmol/L and 116 nmol/L and 254 nmol/L and 149 nmol/L and 127 nmol/L and 112 nmol/L and 136 nmol/L and 65 nmol/L and 202 nmol/L and 81 nmol/L and 100 nmol/L and 209 nmol/L and 189 nmol/L and 121 nmol/L and 288 nmol/L
same,Cortisol post Trilostane post Dex,[6]; [10],170 nmol/l and 149 nmol/l and 118 nmol/l and 113 nmol/l (2×) and 82 nmol/l and 81 nmol/l (2×) and 163 nmol/l and 50 nmol/l and 101 nmol/l and 138 nmol/l and 47 nmol/l and 1 nmol/l and 153 nmol/l
same,Cortisol post Trilostane post TRH,[6]; [10],114 nmol/l and 316 nmol/l and 167 nmol/l and 193 nmol/l and 93 nmol/l and 79 nmol/l and 139 nmol/l and 158 nmol/l and 170 nmol/l and 88 nmol/l and 150 nmol/l and 117 nmol/l and 100 nmol/l (2×) and 138 nmol/l and 224 nmol/l
same,post Trilostane % TRH resp,[6]; [10],−29% and 34% and 44% and −24% and −38% (2×) and 24% and 16% and 162% and −56% and 85% and 17% and −52% and −27% and −17% and −22%
same,"Cortisol response to TRH / Dex pre vs post trilostane, in words","[6]; horses, single daily dose",lowering of the response to TRH; also recorded: decrease in cortisol response to TRH administration
same,"Different, pre-post: % TRH resp, group mean",[6]; mean of horses,39.2%
same,"Different, pre-post: Base, group mean",[6]; mean of horses,-22 nmol/L
same,"Different, pre-post: post Dex, group mean",[6]; mean of horses,5 nmol/L
same,"Different, pre-post: post TRH, group mean",[6]; mean of horses,30 nmol/L
same,"Cortisol post Trilostane post Dex, group mean","[6]; mean of horses, 22 hours post dexamethasone, after 30 days trilostane",104 nmol/L
same,"Cortisol post Trilostane Base, group mean",[6]; [11],159 nmol/L
same,"Cortisol post Trilostane post TRH, group mean",[6]; [11],147 nmol/L
same,Response rate,[7],29% and 38%
